Activity calls are given as the source filed them. The rule behind the calls is not given here.

This series has as its system CCRIS mutagenicity, Ames/micronucleus/aberration tests. The series is described as follows: CCRIS mutagenicity studies.
The mark [1] stands for this setting: Test System: AMES SALMONELLA TYPHIMURIUM, Strain/Indicator: TA98, Metabolic Activation: NONE, Method: PREINCUBATION
[2] abbreviates: Test System: AMES SALMONELLA TYPHIMURIUM, Strain/Indicator: TA98, Metabolic Activation: RAT, LIVER, S-9, PHENOBARBITAL AND 5,6-BENZOFLAVONE, Method: PREINCUBATION
Setting [3] is: Test System: AMES SALMONELLA TYPHIMURIUM, Strain/Indicator: TA100, Metabolic Activation: NONE, Method: PREINCUBATION
Where [4] appears, read: Test System: AMES SALMONELLA TYPHIMURIUM, Strain/Indicator: TA100, Metabolic Activation: RAT, LIVER, S-9, PHENOBARBITAL AND 5,6-BENZOFLAVONE, Method: PREINCUBATION
Where [5] appears, read: Test System: AMES SALMONELLA TYPHIMURIUM, Strain/Indicator: TA1535, Metabolic Activation: NONE, Method: PREINCUBATION
The mark [6] stands for this setting: Test System: AMES SALMONELLA TYPHIMURIUM, Strain/Indicator: TA1535, Metabolic Activation: RAT, LIVER, S-9, PHENOBARBITAL AND 5,6-BENZOFLAVONE, Method: PREINCUBATION
[7] abbreviates: Test System: AMES SALMONELLA TYPHIMURIUM, Strain/Indicator: TA1537, Metabolic Activation: NONE, Method: PREINCUBATION
The mark [8] stands for this setting: Test System: AMES SALMONELLA TYPHIMURIUM, Strain/Indicator: TA1537, Metabolic Activation: RAT, LIVER, S-9, PHENOBARBITAL AND 5,6-BENZOFLAVONE, Method: PREINCUBATION
Setting [9] is: Test System: E. COLI, Strain/Indicator: WP2 UVRA, Metabolic Activation: NONE, Method: PREINCUBATION
Setting [10] is: Test System: E. COLI, Strain/Indicator: WP2 UVRA, Metabolic Activation: RAT, LIVER, S-9, PHENOBARBITAL AND 5,6-BENZOFLAVONE, Method: PREINCUBATION
[11] abbreviates: Test System: AMES SALMONELLA TYPHIMURIUM, Strain/Indicator: TA97, Metabolic Activation: NONE, Method: STANDARD PLATE.
Where [12] appears, read: Test System: AMES SALMONELLA TYPHIMURIUM, Strain/Indicator: TA97, Metabolic Activation: RAT, LIVER, S-9, AROCLOR 1254, Method: STANDARD PLATE.
The mark [13] stands for this setting: Test System: AMES SALMONELLA TYPHIMURIUM, Strain/Indicator: TA98, Metabolic Activation: NONE, Method: STANDARD PLATE.
[14] abbreviates: Test System: AMES SALMONELLA TYPHIMURIUM, Strain/Indicator: TA98, Metabolic Activation: RAT, LIVER, S-9, AROCLOR 1254, Method: STANDARD PLATE.
[15] abbreviates: Test System: AMES SALMONELLA TYPHIMURIUM, Strain/Indicator: TA100, Metabolic Activation: NONE, Method: STANDARD PLATE.
[16] abbreviates: Test System: AMES SALMONELLA TYPHIMURIUM, Strain/Indicator: TA100, Metabolic Activation: RAT, LIVER, S-9, AROCLOR 1254, Method: STANDARD PLATE.

As for `CC[C@H](C)[C@H](NC(=O)[C@@H](NC(=O)[C@H](CCC(=O)O)NC(=O)[C@H](CCSC)NC(=O)[C@H](CC(C)C)NC(=O)[C@H](CCCCN)NC(=O)[C@H](CCCNC(=N)N)NC(=O)[C@H](CC(N)=O)NC(=O)[C@H](CO)NC(=O)[C@H](Cc1c[nH]cn1)NC(=O)[C@H](C)NC(=O)[C@H](CCC(N)=O)NC(=O)[C@H](CCC(N)=O)NC(=O)[C@H](C)NC(=O)[C@H](CC(C)C)NC(=O)[C@H](CCC(N)=O)NC(=O)[C@H](CCC(=O)O)NC(=O)[C@H](C)NC(=O)[C@H](CCCNC(=N)N)NC(=O)[C@H](C)NC(=O)[C@H](CCSC)NC(=O)[C@H](CCC(=O)O)NC(=O)[C@H](CC(C)C)NC(=O)[C@@H](NC(=O)[C@H](CCC(=O)O)NC(=O)[C@H](CCCNC(=N)N)NC(=O)[C@H](CC(C)C)NC(=O)[C@H](CC(C)C)NC(=O)[C@H](Cc1c[nH]cn1)NC(=O)[C@H](Cc1ccccc1)NC(=O)[C@@H](NC(=O)[C@H](CC(C)C)NC(=O)[C@H](CC(=O)O)NC(=O)[C@H](CC(C)C)NC(=O)[C@H](CO)NC(=O)[C@@H](NC(=O)[C@@H]1CCCN1C(=O)[C@@H]1CCCN1C(=O)[C@H](CCC(=O)O)NC(=O)[C@H](CCC(=O)O)NC(=O)[C@@H](N)CO)[C@@H](C)CC)[C@@H](C)O)C(C)C)[C@@H](C)CC)C(N)=O`, the mutagenic call under setting [1] was “inactive; negative”; the mutagenic call under setting [2] is “inactive; negative”; the mutagenic call under setting [3] is “inactive; negative”; the mutagenic call under setting [4] is “inactive; negative”; the mutagenic call under setting [5] is “inactive; negative”; the mutagenic call under setting [6] was “inactive; negative”. Also, the mutagenic call is, setting by setting: under setting [7], “inactive; negative”; under setting [8], “inactive; negative”; under setting [9], “inactive; negative”; under setting [10], “inactive; negative”.
Consider `COC(=O)C1=C(C)NC(C)=C(C(=O)OCCc2ccc(N3CCN(C(c4ccccc4)c4ccccc4)CC3)cc2)C1c1cccc([N+](=O)[O-])c1` (stereo not drawn), for which the mutagenic call is “inactive; negative” under setting [1]; “inactive; negative” under setting [2]; “inactive; negative” under setting [3]; “inactive; negative” under setting [4]; “inactive; negative” under setting [5]; “inactive; negative” under setting [6]. Besides, the mutagenic call was “inactive; negative” under setting [7], “inactive; negative” under setting [8], “inactive; negative” under setting [9] and “inactive; negative” under setting [10].
For `COc1ccc2[nH]cc(CCNC(C)=O)c2c1`, the mutagenic call reads like this: under setting [11], “inactive; negative”; under setting [12], “inactive; negative”; (Test System: AMES SALMONELLA TYPHIMURIUM, Strain/Indicator: TA97A, Metabolic Activation: NONE, Method: STANDARD PLATE) “inactive; negative”; (Test System: AMES SALMONELLA TYPHIMURIUM, Strain/Indicator: TA97A, Metabolic Activation: RAT LIVER S-9, PHENOBARBITOL/BETA-NAPHTHOFLAVONE, Method: STANDARD PLATE) “inactive; negative”; under setting [13], “inactive; negative”; (Test System: AMES SALMONELLA TYPHIMURIUM, Strain/Indicator: TA98, Metabolic Activation: RAT LIVER S-9, PHENOBARBITOL/BETA-NAPHTHOFLAVONE, Method: STANDARD PLATE) “inactive; negative”. Moreover, the mutagenic call under setting [14] was “inactive; negative”; the mutagenic call under setting [3] is “inactive; negative”; the mutagenic call under setting [15] was “inactive; negative”; the mutagenic call (Test System: AMES SALMONELLA TYPHIMURIUM, Strain/Indicator: TA100, Metabolic Activation: RAT LIVER S-9, PHENOBARBITOL/BETA-NAPHTHOFLAVONE, Method: PREINCUBATION) is “inactive; negative”; the mutagenic call (Test System: AMES SALMONELLA TYPHIMURIUM, Strain/Indicator: TA100, Metabolic Activation: RAT LIVER S-9, PHENOBARBITOL/BETA-NAPHTHOFLAVONE, Method: STANDARD PLATE) is “inactive; negative”; the mutagenic call under setting [16] was “inactive; negative”. In addition, the mutagenic call (Test System: AMES SALMONELLA TYPHIMURIUM, Strain/Indicator: TA1535, Metabolic Activation: NONE, Method: STANDARD PLATE) is “inactive; negative”; the mutagenic call (Test System: AMES SALMONELLA TYPHIMURIUM, Strain/Indicator: TA1535, Metabolic Activation: RAT LIVER S-9, PHENOBARBITOL/BETA-NAPHTHOFLAVONE, Method: STANDARD PLATE) was “inactive; negative”; the mutagenic call (Test System: E.COLI, Strain/Indicator: WP2/UVRA, Metabolic Activation: NONE, Method: STANDARD PLATE) is “inactive; negative”; the mutagenic call (Test System: E.COLI, Strain/Indicator: WP2/UVRA, Metabolic Activation: RAT LIVER S-9, PHENOBARBITOL/BETA-NAPHTHOFLAVONE, Method: STANDARD PLATE) is “inactive; negative”.
`CC(=O)ON(OC(C)C)C(=O)c1ccccc1`: the mutagenic call under setting [15] was “active; positive” and the mutagenic call (Test System: AMES SALMONELLA TYPHIMURIUM, Strain/Indicator: TA100, Metabolic Activation: RAT, S-9, AROCLOR, Method: STANDARD PLATE) was “active; positive”.
Consider `COc1c(Cl)ccc(Cl)c1C(=O)O`, for which the mutagenic call under setting [11] is “inactive; negative”; the mutagenic call under setting [12] is “inactive; negative”; the mutagenic call under setting [13] was “inactive; negative”; the mutagenic call under setting [14] was “inactive; negative”; the mutagenic call under setting [15] was “inactive; negative”; the mutagenic call under setting [16] was “inactive; negative”. Further, the mutagenic call is, setting by setting: (Test System: AMES SALMONELLA TYPHIMURIUM, Strain/Indicator: TA102, Metabolic Activation: NONE, Method: STANDARD PLATE) “inactive; negative”; (Test System: AMES SALMONELLA TYPHIMURIUM, Strain/Indicator: TA102, Metabolic Activation: RAT, LIVER, S-9, AROCLOR 1254, Method: STANDARD PLATE) “inactive; negative”; (Test System: UDS HUMAN LYMPHOCYTES, Strain/Indicator: THY INCORP (NON-S-PHASE), Metabolic Activation: NONE, Method: LIQUID SCINTILLATION COUNTING) “inactive; negative”; (Test System: UDS HUMAN LYMPHOCYTES, Strain/Indicator: THY INCORP (NON-S-PHASE), Metabolic Activation: RAT, LIVER, S-9, Method: LIQUID SCINTILLATION COUNTING) “active; positive”.
Regarding `CC1(C)COCN1`, the mutagenic call by setting is: (End Point: In vitro chromosomal aberrations, Test System: Chinese hamster ovary (CHO) cells, Metabolic Activation: None) “active; positive”; (End Point: In vitro chromosomal aberrations, Test System: Chinese hamster ovary (CHO) cells, Metabolic Activation: S-9) “active; positive”; (Test System: Mouse lymphoma, Strain/Indicator: L5178Y (TK+/TK-), Metabolic Activation: None, Method: Not specified by DPR) “active; positive (purity 78%)”; (Test System: Mouse lymphoma, Strain/Indicator: L5178Y (TK+/TK-), Metabolic Activation: S-9, Method: Not specified by DPR) “active; positive (purity 78%)”.
`O=C1OCC(CBr)=C1Cl`: the mutagenic call under setting [15] was “active; positive”.
As for `CCC(C)NC(=O)C=Cc1ccc([N+](=O)[O-])o1` (stereo not drawn), the mutagenic call under setting [1] was “active; positive”.
`O=C(c1ccccc1)[C@@H]1O[C@@H]1c1ccc(Br)cc1`: the mutagenic call runs as follows: under setting [13], “inactive; negative”; under setting [14], “inactive; negative”; under setting [15], “inactive; negative”; under setting [16], “inactive; negative”.

Source of the values: PubChem BioAssay AID1259407 (Chemical Carcinogenesis Research Information System (CCRIS), 2018).
